# How the values were obtained:
# [1] = Mechanical properties of hair after exposure in natural light and artificial xenon light; settings: natural light (sunny environment) and artificial light (xenon, SUNTEST HANAU)
# Excerpt: (§1) The 15% extension level is the weight to be applied to wet hair of given length to extend it by 15%. The higher the weight, the stronger and more elastic the hair.
# It has been possible to reveal this property by exposure in natural light (sunny environment) and artificial light (xenon light emitter in a SUNTEST HANAU type accelerated aging apparatus).
# [2] = 15% wet extension level of bleached hair after exposure to light (SUNTEST HANAU xenon apparatus)
# Method: as §1
# This composition is applied to bleached hair, then rinsed. The hair is then exposed to the Suntest by means of a "SUNTEST HANAU" apparatus for 120 hours. This apparatus consists of a xenon light emitter and a system of filters producing a radiation corresponding to a very large extend to solar radiation. The energy radiation is about 585 W/m^2 in the wavelength range between 300 and 830 nm (overall radiation).
# After applying this foam to bleached hair three times and without consecutive rinsing, the hair is exposed to the Suntest as described in Example 1 for 180 hours.
# Bleached hair treated with one application of this spray and not rinsed is then exposed to the Suntest under the conditions described in Example 1 for 120 hours.
# Bleached hair treated with one application of this gel and not rinsed is then exposed to the Suntest under the conditions described in Example 1 for 120 hours.
smiles,measurement,setting,value
CC12CCC(C(=Cc3ccc(S(=O)(=O)O)cc3)C1=O)C2(C)C (centres unmarked) [4-(2-oxo-3-bornylidenemethyl)benzenesulphonic acid],preservation of the mechanical properties of hair from degradation by light,[1],can preserve the mechanical properties of hair
same,improvement in the mean value of the 15% wet extension level,"[2]; rinse composition with 5 g per 100 g of the acid, rinsed, Suntest 120 hours, compared to same rinse containing no acid",very significantly improved
same,improvement in the mean value of the 15% wet extension level,"[2]; styling foam with 1.5 g per 100 g of the acid (90 g composition + 10 g propellant), applied three times, not rinsed, Suntest 180 hours, compared to same foam containing no acid",appreciable improvement
same,improvement in the mean value of the 15% wet extension level,"[2]; styling gel with 0.4 g per 100 g of the acid, one application, not rinsed, Suntest 120 hours, compared to same gel without the acid",appreciable improvement
same,improvement in the mean value of the 15% wet extension level,"[2]; styling spray with 1 g per 100 g of the acid, one application, not rinsed, Suntest 120 hours, compared to same spray containing no acid",significant improvement

# — patent US5227153A, “Use of 4-(2-oxo-3-bornylidenemethyl)benzenesulfphonic acid or its salts for the protection of hair against environmental attacking agents, and in particular against light, and process for the protection of hair using this compound” (L'Oreal, priority 1988, dated 1993)
